Measured values reported in patent publication US11357817B2, “Immunoproteasome inhibitor” (The Regents of the University of California, priority 2017, dated 2022).

Tests used:
P. falciparum Dd2 = P. falciparum Dd2 asexual blood stage SYBR Green I compound sensitivity assay; assay type: cell-based, Plasmodium falciparum; conditions: Plasmodium falciparum, DD2, 72 h, asexual blood stage, 72 hour SYBR green assay
Experimental: P. falciparum Dd2 strain parasites were cultured under standard conditions (31), using RPMI media supplemented with 0.05 mg/ml gentamycin, 0.014 mg/mL hypoxanthine (prepared fresh), 38.4 mM HEPES, 0.2% Sodium Bicarbonate, 3.4 mM Sodium Hydroxide, 0.05% O+ Human Serum (Denatured at […] for 40 min and From Interstate Blood Bank, Memphis, Tenn.) and 0.0025% Albumax). Human O+ whole blood was obtained from TSRI blood bank (La Jolla, Calif.). Leukocyte-free erythrocytes are stored at 50% hematocrit in RPMI-1640 screening media (as above, but without O+ human serum and with 2× albumax concentration) at 4° C. for one to three weeks before experimental use. Cultures were monitored every one to two days via Giemsa-stained thin smears.
Compound susceptibility was measured using the malaria SYBR Green I-based fluorescence assay (32). Asynchronous P. falciparum parasites (Dd2 strain) were cultured in standard conditions before being plated for the assays. Each compound was tested over 72 hours in technical duplicates on a twelve-point concentration curve prepared by three-fold dilution from 6.7 μM to 0.11 nM. At least three independent experiments were carried out for IC50 determination. Artemisinin and chloroquine were used as controls. IC50 values were obtained using normalized fluorescence intensity from SYBR green I and analyzed via non-linear variable slope four-parameter regression curve-fitting model in Prism 6 (GraphPad Software Inc).

c20S = biological target: T1, c20S (Homo sapiens, UniProt P20618+P28074); assay: Calculation of inhibition constants (inactivation kinetics), c20S; assay type: biochemical
T1 construct: purchased Boston Biochem
Experimental: The rate of AMC release was calculated in the presence of serial dilution of each inhibitor. The rate of product formation were calculated at 30 min intervals for 4 hours, and normalized to activity DMSO control to calculate inactivation curves. Kobs values for each inhibitor concentration were calculated from inactivation curves, and inhibition constants KI and kinact were calculated by non-linear regression of Kobs and inhibitor concentration using GraphPad Prism 6 software.

HepG2 cells = assay: HepG2 cytotoxicity assay; assay type: cell-based; conditions: Homo sapiens
Experimental: The liver-stage and HepG2 toxicity assays were performed as previously reported (35). Briefly, HepG2-A16-CD81EGFP, human hepatocarcinoma HepG2 cells stably transformed to express the tetraspanin CD81 receptor (36, 37) and thus susceptible to P. berghei infection, were cultured at 37° C. in 5% CO2 in DMEM (Life Technologies, Calif.) supplemented with 10% FBS, 0.29 mg/ml glutamine, 100 unit penicillin and 100 μg/ml streptomycin. For both the P. berghei-luciferase and HepG2 cytotoxicity assays, 3×10^3 of the HepG2-A16-CD81EGFP cells in 5 μl of assay medium (DMEM without Phenol Red (Life Technologies, Calif.), 5% FBS, and 5× Pen Strep Glutamine (Life Technologies, Calif.)) at concentration 6×10^5 cells/ml were seeded in 1536-well plates (Greiner BioOne white solid bottom custom GNF mold) 20-26 hours prior to the actual infection. 18 hours prior to infection, 50 nl of compound in DMSO (0.5% final DMSO concentration per well) were transferred with Acoustic Transfer System (ATS) (Biosero) into the assay plates. Atovaquone (12-point serial dilution starting at 10 μM) and Puromycin (12-point serial dilution starting at 10 μM) were used as positive controls for Pb. liver stage assay and HepG2 cytotoxicity respectively. 0.5% DMSO was used as negative control for the both assays.
An. stephensi mosquitoes, infected with P. berghei-luciferase, were provided by the New York University Insectary. P. berghei-luciferase sporozoites were freshly dissected from the infected A. stephensi mosquito salivary glands, filtered twice through a 20 μm nylon net filter using Steriflip Vacuum-Driven Filtration System (Millipore), counted in a hemocytometer, and then adjusted to final concentration 200 sporozoites per μl in the assay media. […] The HepG2-A16-CD81EGFP cell designated for toxicity studies were left uninfected, with 5 ul of additional assay media added to each well to maintain equal concentrations of compounds with P. berghei-luciferase infected plates. After incubation at 37° C. for 48 hours the exoerythrocytic growth and HepG2-A16-CD81EGFP cell viability were quantified by a bioluminescence measurement.
The HepG2 cytotoxicity was assessed by removing the media through an inverted spin of the plates at 150 g for 30 s and addition of 2 μL of CellTiterGlo reagent (Promega diluted 1:2 with deionized water) per well using the MicroFlo liquid handler (BioTek). Immediately after addition of the luminescence reagent, the plates were vortexed for 10 s and read with an EnVision Multilabel reader (PerkinElmer). IC50 values were obtained as above.

[1] = test system: 20S Plasmodium proteasome (Pf20S) β1 subunit; assay: Proteasome activity assay, Pf20S β1 (z-LLE-AMC); assay type: biochemical, Plasmodium falciparum; conditions: 450 nM compound; proteasome not named
Experimental: Asynchronous P. falciparum cultures were grown up to 4-5% parasitemia, in 300 mL of RPMI media at 5.0% hematocrit. […] The PBS was removed and lysis buffer (0.15% saponin in PBS) was added on ice in 10 pellet volumes. Upon lysis of red blood cells, indicated by a clear red supernatant, the lysed cultures were centrifuged at 3200×g for 12 minutes at 4° C. The supernatant was removed by aspiration and the cells were washed twice using chilled PBS in microcentrifuge tubes. The cell pellets were then incubated on ice for 1 hour with occasional vortexing in a buffer consisting of 20 mM Tris-HCl pH 7.5, 5 mM MgCl2, 1 mM DTT, 100 μM E-64 and 1 mM AEBSF. This sample was then subjected to 3 rounds of freezing (−80° C.) and thawing (37° C.) and centrifugation at 6000×g for 10 min. The supernatant containing soluble P. falciparum protein was quantified by the BCA method (Pierce).
P. falciparum proteasome was enriched by two-chromatographic steps reported previously (10). […] The AMC fluorophore release was monitored at Ex 340/Em 465 nm at 24° C. using a Synergy HTX multi-mode reader (Biotek). […] Proteins were eluted using 20 mM Tris-HCl pH 7.5, 100 mM NaCl, 10% glycerol and 1 mL fractions were collected, evaluated for protease activity and pooled. […]

## CCCCCC(=O)N[C@@H](C(=O)N[C@@H](CCCC)C(=O)N[C@@H](CC(C)C)C(=O)[C@@]1(C)CO1)C(C)C [Analog 18, (S)-2-((R)-2-hexanamido-3-methylbutanamido)-N—((S)-4-methyl-1-((R)-2-methyloxiran-2-yl)-1-oxopentan-2-yl)hexanamide]
P. falciparum Dd2
  IC50: 0.00327 ± 0.000232 µM
c20S; c20S
  Ki: 39.2 µM
c20S; kinact/Ki, 18 versus 1
  loss in potency to the human c20S proteasome: 100 fold
HepG2 cells
  IC50: 1.24 ± 0.274 µM
[1]
  β1 activity reduced: 6%
